“And” between values parts separate entries of the source, which are not always exact repeats. Equal values may be shown once.
Test: Pharmacokinetic trial: single 3 mg intravaginal dose of oxybutynin HCl delivered by the MedRing vaginal ring, plasma LC/MS/MS
Format: in vivo, human (female subjects)
Source text: This trial investigated the feasibility of pulsed intra-vaginal delivery of oxybutynin and explored systemic exposure after application via the MedRing device.
The trial included female subjects of childbearing potential (women of childbearing potential, WOCBP) aged between 18 and 45 years (inclusive) and female postmenopausal subjects aged between 50 and 69 years (inclusive); Postmenopausal status is defined as age≥50 years and having >12 months amenorrhoea in the absence of hormonal therapy that may cause amenorrhoea.
Subjects began a 4-hour pre-dose fasting period before arriving to the clinic until 2 hours post-dose. Upon arrival, the subjects underwent pre-dose measurements to re-confirm eligibility for the study and to perform baseline measurements. The MedRing was inserted intra-vaginally by medically trained personnel. Water was allowed ad libitum. Subjects underwent blood sampling throughout the day. The MedRing was removed by medical study personnel 2 hours post dose in the first cohort. The MedRing was removed by medical personnel 6 hours post dose in the second cohort. The subjects went home approximately 8 hours post dose. The following day, the subjects of the second cohort returned to the clinic for an ambulant blood sample.
Plasma samples were also used for assessment of the concentrations of the metabolite, N-desethyloxybutynin.

## CCNCC#CCOC(=O)C(O)(c1ccccc1)C1CCCCC1 (stereo not shown) [N-desethyloxybutynin]
3 mg oxybutynin HCl intravaginal via MedRing
  Area under the concentration-time curve to infinity (AUCinf) in plasma, mean (±SD): 51.1 (±43.1)
3 mg oxybutynin HCl intravaginal via MedRing, plasma
  t1/2, mean (±SD): 7.7 h
3 mg oxybutynin HCl intravaginal via MedRing, post dose, plasma
  tmax, median (min-max): 4 hours and 4 (3-5) hours
3 mg oxybutynin HCl intravaginal via MedRing, single dose, 8 female subjects
  Cmax in plasma, mean (±standard deviation): 3.9 ng/mL
Intravaginal via MedRing
  plasma concentrations relative to known safety window: well within the known safety window
Second cohort (MedRing in situ 6 hours), 22-hour sample
  plasma levels after 22 hours: found in all 4 subjects

## CCN(CC)CC#CCOC(=O)C(O)(c1ccccc1)C1CCCCC1 (stereo not shown) [oxybutynin]
female, human, in vivo, 3 mg
  AUC(0-inf): 34.9 ng·h/mL
  Cmax: 5.4 ng/mL
  Tmax: 2 h
  half-life: 8.5 h
  t1/2, mean (±SD): 8.5 (±3.5) hours
  tmax, median (min-max): 2 (1-5) hours
female, human, in vivo, 22 h
  plasma levels after 22 hours: found in all 4 subjects

— patent publication US20240075005A1 (LIGALLI BV, priority 2021, published 2024)
